# Read-outs that look alike come from different tables or passages of the source.
# System: HIV-1 isolates from patient plasma samples (recombinant virus with patient PR-RT segment)
# Procedure: Phenotypic drug susceptibility is measured as the concentration of drug required to inhibit virus replication by 50% (IC50). As used herein, a “fold change” or “FC” is the ratio of a viral variant IC50 divided by the IC50 of a reference HIV.
# The clinical cutoff has been identified as a 3.5-fold change (“FC”) for the PHENOSENSE™ phenotypic HIV assay for FTC.
# A set of reverse transcriptase mutations for FTC was generated utilizing the HIPAA-compliant database of over 48,000 linked phenotype and genotype results for patient's samples maintained by ViroLogic, Inc. (South San Francisco, Calif.). Phenotypes and genotypes were determined in the ViroLogic clinical laboratory. […] In this subset excluding the wild-type samples, a total of 13,576 samples had IC50 fold change (FC) data available for FTC.
# The drug susceptibility phenotypes of the HIV-1 isolates from patient plasma samples was determined by the PHENOSENSE™ phenotype HIV assay. This assay was performed by amplifying the PR-RT segment of the pol gene from patient plasma and inserting it into a genomic HIV-1 vector. The vector contained a luciferase reporter gene to monitor recombinant virus infection in cell culture. Results were expressed as the FC in the IC50 for the patient-derived virus compared to that for a reference control virus, NL4-3. Drug dilutions were arranged to maximize curve-fitting accuracy for the range of wildtype virus susceptibilities over clinically relevant ranges of increased and decreased susceptibilities. Microtiter plates were incubated in customized incubators in which the temperature, CO2 level, and humidity were controlled to minimize variation in cell growth and medium composition changes throughout the plate.
# The five rules were tested separately and with the condition that none of the other rules were verified as true, except for rule 2. […] In this exercise, because of large number of samples in each category, mixtures (if present at accessory positions) were considered as mutant. In rule 2, because of the low number of samples with T69 insertion without NAMs, the condition was defined to select samples with T69 insertion and with no mutation Q151M, K65R, M184I, M184V or M184T.
compound,measurement,setting,value
"Nc1nc(=O)n([C@@H]2CS[C@H](CO)O2)cc1F [FTC, emtricitabine]",samples classified as phenotypically resistant,"dataset of 13,576 patient samples (wild-type excluded) with FTC FC data, 8,589 samples resistant",63.2%
same,PR % (samples phenotypically resistant to FTC),"rule 1: samples with RT mutation Q151M only, PR = FC at or above clinical cutoff 3.5 vs NL4-3",53.8%
same,PR % (samples phenotypically resistant to FTC),"rule 2: samples with T69 insertion (possible NAMs), no Q151M, K65R, M184I/V/T, cutoff FC 3.5",89.4%
same,PR % (samples phenotypically resistant to FTC),"rule 3: samples with RT mutation K65R only, cutoff FC 3.5",95.2%
same,PR % (samples phenotypically resistant to FTC),"rule 4: samples with M184I, V or T only, cutoff FC 3.5",100%
same,PR % (samples phenotypically resistant to FTC),"rule 5: samples with 4 or more NAMs (M41L, E44A/D, D67N, K70R, V118I, L210W, T215F/Y, K219E/H/N/Q/R) only, cutoff FC 3.5",87.1%
same,PR % (samples phenotypically resistant to FTC),"totals: all 2794 samples meeting only one of the five rules, cutoff FC 3.5",94.9%

# From patent US20080293038A1, “Method for Determining Resistance of Hiv to Nucleoside Reverse Transcriptase Inhibitor Treatment” (priority 2005, published 2008)
